In the supplement of paper PMC10307832:

Assays:
Experiment in all cases: relative viability (nuclei count vs DMSO), 5 days (fraction); higher = more cells survive
QS11 + Phenformin = compound: C1CC2=C(C1)C=C(C=C2)OC3=NC(=C4C(=N3)N(C=N4)CC5=CC=C(C=C5)C6=CC=CC=C6)N[C@@H](CC7=CC=CC=C7)CO [QS11] + N=C(N)NC(=N)NCCc1ccccc1 [Phenformin] (partner 250 µM)
How it was run: (§1)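 Relative viability equals treated-well nuclei counts divided by vehicle-well nuclei counts. Counts came from 4× images of lung cancer cell lines grown in 1536-well plates for 5 days after pin-tool dosing on the day after seeding. Dosing used one drug alone or a fixed anchor-drug dose plus five library-drug doses (not always all listed) in √10 steps, and values are medians of duplicate plates.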

QS11 + Navitoclax = compound: C1CC2=C(C1)C=C(C=C2)OC3=NC(=C4C(=N3)N(C=N4)CC5=CC=C(C=C5)C6=CC=CC=C6)N[C@@H](CC7=CC=CC=C7)CO [QS11] + CC1(C)CCC(c2ccc(Cl)cc2)=C(CN2CCN(c3ccc(C(=O)NS(=O)(=O)c4ccc(N[C@H](CCN5CCOCC5)CSc5ccccc5)c(S(=O)(=O)C(F)(F)F)c4)cc3)CC2)C1 [Navitoclax] (partner 0.5 µM)
How it was run: as §1

AZ628 + Luminespib = compound: CC1=C(C=C(C=C1)NC(=O)C2=CC(=CC=C2)C(C)(C)C#N)NC3=CC4=C(C=C3)N=CN(C4=O)C [AZ628] + CCNC(=O)c1noc(-c2cc(C(C)C)c(O)cc2O)c1-c1ccc(CN2CCOCC2)cc1 [Luminespib] (partner 0.01 µM)
How it was run: as §1

AZ628 + Trametinib = compound: CC1=C(C=C(C=C1)NC(=O)C2=CC(=CC=C2)C(C)(C)C#N)NC3=CC4=C(C=C3)N=CN(C4=O)C [AZ628] + CC(=O)Nc1cccc(-n2c(=O)n(C3CC3)c(=O)c3c(Nc4ccc(I)cc4F)n(C)c(=O)c(C)c32)c1 [Trametinib] (partner 0.02 µM)
How it was run: as §1

Cell Line | relative viability (QS11 + Phenformin; first compound 0.08 µM) | relative viability (QS11 + Phenformin; first compound 0.253 µM) | relative viability (QS11 + Phenformin; first compound 0.8 µM) | relative viability (QS11 + Phenformin; first compound 2.53 µM) | relative viability (QS11 + Phenformin; first compound 8 µM) | relative viability (QS11 + Navitoclax; first compound 0.08 µM) | relative viability (QS11 + Navitoclax; first compound 0.253 µM) | relative viability (QS11 + Navitoclax; first compound 0.8 µM) | relative viability (QS11 + Navitoclax; first compound 2.53 µM) | relative viability (QS11 + Navitoclax; first compound 8 µM) | relative viability (AZ628 + Luminespib; first compound 0.08 µM) | relative viability (AZ628 + Luminespib; first compound 0.253 µM) | relative viability (AZ628 + Luminespib; first compound 0.8 µM) | relative viability (AZ628 + Luminespib; first compound 2.53 µM) | relative viability (AZ628 + Luminespib; first compound 8 µM) | relative viability (AZ628 + Trametinib; first compound 0.08 µM) | relative viability (AZ628 + Trametinib; first compound 0.253 µM) | relative viability (AZ628 + Trametinib; first compound 0.8 µM) | relative viability (AZ628 + Trametinib; first compound 2.53 µM) | relative viability (AZ628 + Trametinib; first compound 8 µM)
PC-14 | 0.384 | 0.49 | 0.574 | 0.683 | 0.737 | 1.1 | 1.02 | 0.95 | 1.03 | 0.921 | 0.197 | 0.132 | 0.146 | 0.167 | 0.202 | 0.441 | 0.301 | 0.205 | 0.178 | 0.195
CAL-12T | 0.571 | 0.572 | 0.552 | 0.594 | 0.561 | 1.18 | 1.39 | 1.15 | 1.08 | 1.14 | 0.591 | 0.371 | 0.376 | 0.465 | 0.466 | 0.295 | 0.248 | 0.259 | 0.193 | 0.305
NCI-H3122 | 0.376 | 0.399 | – | 0.384 | 0.322 | 1.01 | 1.06 | 0.698 | 1.06 | 0.817 | 0.0933 | 0.0771 | 0.11 | 0.0973 | 0.0958 | 0.157 | 0.143 | 0.159 | 0.138 | 0.132
NCI-H596 | 0.736 | 0.81 | 0.804 | 0.832 | 0.874 | 0.94 | 0.961 | 1.07 | 0.969 | 1.24 | 0.931 | 1.11 | 1.02 | 0.984 | 0.829 | 0.779 | 0.711 | 0.622 | 0.786 | 0.756
NCI-H727 | 0.88 | 0.442 | 0.459 | 0.557 | 0.372 | 0.389 | 0.346 | 0.47 | 0.301 | 0.328 | 0.343 | 0.337 | 0.228 | 0.277 | 0.203 | 0.338 | – | – | 0.385 | 0.357
NCI-H1666 | 0.556 | 0.519 | 0.55 | 0.479 | 0.398 | 1.04 | 0.868 | 0.932 | 0.55 | 0.472 | 0.978 | 0.882 | 0.848 | 0.843 | 0.829 | 0.758 | 0.697 | 0.841 | 0.6 | 0.777
COR-L23 | 0.461 | 0.452 | 0.44 | 0.39 | 0.366 | 1.06 | 0.922 | 0.818 | 0.865 | 0.761 | 0.687 | 0.737 | 0.709 | 0.655 | 0.404 | 0.292 | 0.237 | 0.271 | 0.211 | 0.271
NCI-H460 | 0.556 | 0.498 | 0.477 | 0.442 | 0.227 | 1.1 | 1.25 | 0.882 | 1.06 | 0.308 | 0.0338 | 0.033 | 0.0403 | 0.0274 | 0.0264 | 0.161 | 0.0829 | 0.0419 | 0.0397 | 0.0115
SK-MES-1 | 0.764 | 0.678 | 0.663 | 0.712 | 0.711 | 1.43 | 1.25 | 1.21 | 1.45 | 1.37 | 0.848 | 0.72 | 0.574 | 0.598 | 0.386 | 0.32 | 0.318 | 0.308 | 0.262 | 0.369
LC-2-ad | 0.535 | 0.482 | 0.535 | 0.551 | 0.599 | 0.407 | 0.357 | 0.488 | 0.335 | 0.384 | 1.1 | 1.08 | 0.458 | 1.13 | 0.926 | 0.731 | 0.669 | 0.529 | 0.601 | 0.427
BEN | 0.262 | 0.3 | 0.29 | 0.258 | 0.251 | 0.0566 | 0.0797 | 0.0702 | 0.047 | 0.0634 | 0.51 | 0.251 | 0.485 | 0.938 | 0.221 | 1.12 | 1.01 | 0.806 | 1.02 | 0.783
NCI-H1651 | 0.377 | 0.384 | 0.305 | 0.374 | 0.343 | 1.13 | 0.998 | 0.936 | 0.98 | 0.839 | 0.92 | 0.825 | 0.919 | 0.955 | 0.61 | 0.848 | 0.83 | 0.858 | 0.826 | 0.77
EKVX | 0.228 | 0.224 | – | 0.228 | 0.255 | 0.957 | 0.863 | – | 0.891 | 1.1 | 0.892 | 0.857 | 0.946 | 0.954 | 0.864 | 0.368 | 0.227 | 0.248 | 0.273 | 0.195
COR-L 105 | 0.511 | 0.407 | 0.475 | 0.501 | 0.475 | 0.77 | 0.618 | 0.788 | 0.733 | 0.83 | 0.828 | 0.591 | 0.761 | 0.86 | 0.635 | 0.435 | 0.401 | 0.382 | 0.352 | 0.36
NCI-H1650 | 0.374 | 0.472 | 0.376 | 0.474 | 0.391 | 1.18 | 1.12 | 1.07 | 1.1 | 1.2 | 0.206 | 0.18 | 0.201 | 0.203 | 0.206 | 0.502 | 0.541 | 0.329 | 0.327 | 0.497
HCC-15 | 0.541 | 0.519 | 0.445 | 0.44 | 0.5 | 0.728 | 0.795 | – | 0.877 | 0.782 | 0.262 | 0.304 | 0.478 | 0.361 | 0.282 | 0.334 | 0.291 | 0.272 | 0.25 | 0.243
